Reference: patent EP0429304A2, “Pyridone-carboxylic acid derivatives and their use as veterinary medicines” (SHIONOGI SEIYAKU KABUSHIKI KAISHA trading under the name of …, priority 1989, dated 1991)
Read-outs that look alike come from different tables or passages of the source.

Experiments:
[1] = system: Streptococcus sp (Str.sp) SNO6119; assay: In vitro sensitivity test; type: cell-based; conditions: 25°C, 40 to 48 hours
[2] = system: Pasteurella piscicida (P.pis) No. 2; assay: In vitro sensitivity test; type: cell-based; conditions: 25°C, 40 to 48 hours
Outline: (§1)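 MS (liquid dilution): Frey medium + 12 % pig-serum + 0.01 % βNAD, 37°C, 7 days. S.au (agar dilution): Mueller Hinton agar, 37°C, 20 to 24 hours. P.pis: heart infusion agar + 1.5 % NaCl, 25°C, 40 to 48 hours. All strains animal-origin.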

[3] = system: TS-resistant strain of MG; type: in vivo, chicken; conditions: for Infectious index Left air sack + / Infectious index Left air sack ++ / Infectious index Left air sack +++ / Infectious index Left air sack - / Infectious index Right air sack + / Infectious index Right air sack ++ / Infectious index Right air sack +++ / Infectious index Right air sack -: count of fowl; for Infectious index Left air sack + / Infectious index Left air sack ++ / Infectious index Left air sack +++ / Infectious index Left air sack - / Infectious index Right air sack + / Infectious index Right air sack ++ / Infectious index Right air sack +++ / Infectious index Right air sack - / Number of fowl having air sack lesions: 10-days chicken, 1.2 x 10³ CFU/fowl
[4] = system: Staphylococcus aureus (S.au) 209P; assay: In vitro sensitivity test (agar dilution method); type: cell-based; conditions: 37°C, 20 to 24 hours
Outline: (§2)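 Read-out is visual growth after incubation. Conditions were 37°C for 7 days in Frey medium (12 % pig-serum, 0.01 % βNAD; liquid dilution) for MS, and 37°C for 20 to 24 hours on Mueller Hinton agar for S.au. P.pis used 25°C, 40 to 48 hours, on 1.5 % NaCl heart infusion agar.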

[5] = system: Bordetella bronchiseptica (B.br) ABU-1; assay: In vitro sensitivity test (agar dilution method); type: cell-based; conditions: 37°C, 20 to 24 hours
[6] = system: Escherichia coli (E.coli) JC-2; assay: In vitro sensitivity test (agar dilution method); type: cell-based; conditions: 37°C, 20 to 24 hours
[7] = system: Salmonella typhimurium (S.typhi) 13311; assay: In vitro sensitivity test (agar dilution method); type: cell-based; conditions: 37°C, 20 to 24 hours
[8] = system: Hemophilus paragallinarum (H.pg) 221; assay: In vitro sensitivity test (agar dilution method); type: cell-based; conditions: agar dilution, 37°C, 20 hours, 10 % CO₂
[9] = system: Escherichia coli (E.coli) E-17, chicken-origin strain isolated from the field; assay: In vitro sensitivity test (agar dilution method); type: cell-based; conditions: 37°C, 20 to 24 hours
Outline: as §2

[10] = system: Hemophilus paragallinarum (H.pg) S-1; assay: In vitro sensitivity test (agar dilution method); type: cell-based; conditions: agar dilution, 37°C, 20 hours, 10 % CO₂
[11] = system: Hemophilus pleuropneumonia (H.pp) M-1; assay: In vitro sensitivity test (agar dilution method); type: cell-based; conditions: 37°C, 20 hours, 10 % CO₂
[12] = system: Mycoplasma synoviae (MS) F10-2as; assay: In vitro sensitivity test (liquid dilution method); type: cell-based; conditions: 37°C, 7 days
Outline: as §1

[13] = system: Mycoplasma gallisepticum (MG) T-7-T, TS-resistant strain isolated from the field; assay: In vitro sensitivity test (liquid dilution method); type: cell-based; conditions: 37°C, 7 days
[14] = system: Mycoplasma synoviae (MS) 1853; assay: In vitro sensitivity test (liquid dilution method); type: cell-based; conditions: 37°C, 7 days
Outline: as §1

[15] = system: Mycoplasma hyopneumoniae (Mh) ST-11; assay: In vitro sensitivity test (liquid dilution method); type: cell-based; conditions: 37°C, 7 days
[16] = system: Mycoplasma gallisepticum (MG) S6; assay: In vitro sensitivity test (liquid dilution method); type: cell-based; conditions: 37°C, 7 days

SMILES: NC[C@@]12CCC[C@@H]1CN(c1cc3c(cc1F)c(=O)c(C(=O)O)cn3C1CC1)C2 (relative stereo) [I-8, 7-[(1R*,5S*)-1-aminomethyl-3-azabicyclo[3.3.0]octan-3-yl]-1-cyclopropyl-6-fluoro-1,4-dihydro-4-oxo-3-quinolinecarboxylic acid]
- In vitro Sensitivity Test Str.sp SNO6119 [1]: 0.78 µg/mL
- In vitro Sensitivity Test P.pis No. 2 [2]: 0.78 µg/mL
- Infectious index Left air sack + ([3]; oral 1.56 mg/kg): 0
- Infectious index Left air sack ++ ([3]; oral 1.56 mg/kg): 0
- Infectious index Left air sack +++ ([3]; oral 1.56 mg/kg): 0
- Infectious index Left air sack - ([3]; oral 1.56 mg/kg): 5
- Infectious index Right air sack + ([3]; oral 1.56 mg/kg): 3
- Infectious index Right air sack ++ ([3]; oral 1.56 mg/kg): 2
- Infectious index Right air sack +++ ([3]; oral 1.56 mg/kg): 0
- Infectious index Right air sack - ([3]; oral 1.56 mg/kg): 0
- Infectious index Left air sack + ([3]; oral 3.13 mg/kg): 0
- Infectious index Left air sack ++ ([3]; oral 3.13 mg/kg): 0
- Infectious index Left air sack +++ ([3]; oral 3.13 mg/kg): 0
- Infectious index Left air sack - ([3]; oral 3.13 mg/kg): 5
- Infectious index Right air sack + ([3]; oral 3.13 mg/kg): 1
- Infectious index Right air sack ++ ([3]; oral 3.13 mg/kg): 0
- Infectious index Right air sack +++ ([3]; oral 3.13 mg/kg): 0
- Infectious index Right air sack - ([3]; oral 3.13 mg/kg): 4
- Infectious index Left air sack + ([3]; oral 6.25 mg/kg): 0
- Infectious index Left air sack ++ ([3]; oral 6.25 mg/kg): 0
- Infectious index Left air sack +++ ([3]; oral 6.25 mg/kg): 0
- Infectious index Left air sack - ([3]; oral 6.25 mg/kg): 5
- Infectious index Right air sack + ([3]; oral 6.25 mg/kg): 0
- Infectious index Right air sack ++ ([3]; oral 6.25 mg/kg): 0
- Infectious index Right air sack +++ ([3]; oral 6.25 mg/kg): 0
- Infectious index Right air sack - ([3]; oral 6.25 mg/kg): 5
- antimicrobial activity compared with ERFX ([3]; in vivo, po): two times more effective than ERFX
- Number of fowl having air sack lesions ([3]; oral 1.56 mg/kg): 5
- Number of fowl having air sack lesions ([3]; oral 3.13 mg/kg): 1
- Number of fowl having air sack lesions ([3]; oral 6.25 mg/kg): 0
- complete inihibition of the lesions in air sac at a concentration of ([3]; oral administration, MG-infected chicken): about 3.13 mg/kg
- In vitro Sensitivity Test S.au 209P [4]: <0.0125 µg/mL
- In vitro Sensitivity Test B.br ABU-1 [5]: 1.56 µg/mL
- In vitro Sensitivity Test E.coli JC-2 [6]: 0.05 µg/mL
- In vitro Sensitivity Test S.typhi 13311 [7]: 0.2 µg/mL
- In vitro Sensitivity Test H.pg 221 [8]: 0.2 µg/mL
- In vitro Sensitivity Test E.coli E-17 [9]: 0.05 µg/ml
- In vitro Sensitivity Test H.pg S-1 [10]: 0.2 µg/mL
- In vitro Sensitivity Test H.pp M-1 [11]: 0.05 µg/mL
- In vitro Sensitivity Test MS F10-2as [12]: 0.1 µg/ml
- In vitro Sensitivity Test MG T-7-T [13]: 0.00625 µg/mL
- In vitro Sensitivity Test MS 1853 [14]: 0.1 µg/mL
- In vitro Sensitivity Test Mh ST-11 [15]: <0.025 µg/mL
- In vitro Sensitivity Test MG S6 [16]: <0.00313 µg/mL
